Results taken from patent US20250282844A1, “METHODS FOR CONTROLLING IMMUNE CELL ACTIVITY” (BIOSCEPTRE (AUST) PTY LTD, priority 2021, published 2025).

System: JeKo-1 cells
Assay: Co-culture of T cells (unmodified or expressing nfP2X7 CAR) with JeKo-1 cells, with or without blocking peptide
Format: cell-based
Settings: FIG. 3
Procedure: More specifically, T cells (either unmodified or expressing nfP2X7 CAR) were cultured with JeKo-1 cells at an ET ratio of 5 to 1. Blocking was performed using peptide variant 2 at 5 μg/mL.
On day 5 of co-culture the cell counts were measured and evaluated for total JeKo-1 cell count. The total number of JeKo-1 cells added in the experiment was 20,000 on day 1 and day 3 of the experiment (therefore the total amount of added cells was 40,000 JeKo-1 per condition).
Addition of the blocking peptide variant 2 at 5 ug/mL reversed this such that after 5 days, 40,000 JeKo-1 cells were present in culture.

DFPGHNYTTRNILPGLNITSTFHKTSGSGKGGGGS (E200_extended peptide 17v12 (35 aa) + linker) [peptide variant 2]
total JeKo-1 cell count (T cells expressing nfP2X7 CAR, ET 5 to 1, peptide at 5 ug/mL, day 5 of co-culture, 40,000 JeKo-1 added in total): 40,000 cells | total JeKo-1 cell count (T cells that do not express nfP2X7 CAR (60,000 cells after 5 days without peptide), effect of adding blocking peptide): not changed
